The test system of assay [1] is P. acnes NCTC 737. Nature of the assay: Disc diffusion assay (DDA). The assay is classed as cell-based, Propionibacterium acnes. The settings on record: Table 11 (Example 9), 200 μg per disc, mean of three replicates. Here is the method: (§1) 2. Propionibacterium spp.—the principal propionibacterial strain used in these studies was Propionibacterium acnes NCTC 737.
(§2) The Propionibacterium spp organisms were cultured and maintained on Wilkins-Chalgren Anaerobe Medium (agar and broth) at pH 6.0; cultures were incubated anaerobically at 37° C. for 72 hours.
A sterile paper disc was impregnated with a sample of the test compound and a minimum of 30 minutes allowed for the solvents to evaporate as far as possible. The disc was then placed on an agar plate onto which the test micro-organism had been inoculated. The plate was then incubated under the conditions described above, following which it was examined visually for signs of bacterial growth. […] The diameter of this zone of “inhibition” was measured using a ProtoCOL™ automated zone sizer (Synbiosis, Cambridge, UK).
The area of the zone of inhibition was calculated from the measured zone diameter (D) using the formula π(D/2)^2.
(§3) For all (S)DDA assays, 200 μg of each compound was loaded onto each disc.
In general terms: Agar diffusion results depend on both activity and mobility in agar.

Assay [2] relates to P. acnes NCTC 737. As to the kind of experiment: Synergy disc diffusion assay (SDDA). The assay is classed as cell-based, Propionibacterium acnes. The settings on record: for SDDA area increase / SDDA increase: peroxide + TBHQ; for SDDA area increase: over larger single-compound zone; for SDDA increase: over larger single-compound zone diameter; for SDDA with TBHQ: peroxide combined with TBHQ on one disc, 200 μg of each. Here is the method: as §1, §2
This is a variation on the DDA method, in which two compounds are tested together for their combined antimicrobial activity. It provides a qualitative indication as to whether the compounds are likely to interact synergistically.
Two test compounds A and B were placed on a single paper disc and the above described DDA procedure repeated.
Each of the quinones was then subjected, in combination with BP, to the SDDA assay described above.
as §3

For assay [3], the system named is S. aureus ATCC 29213. Nature of the assay: MIC assay. The assay is classed as cell-based, Staphylococcus aureus. As to conditions: S. aureus ATCC 29213; Table 1 (Example 1). As for the experimental part:
1. Staphylococcus aureus—the principal staphylococcal test micro-organism used in these studies was Staphylococcus aureus ATCC 29213. This strain is the one recommended for QC/QA purposes in Minimum Inhibitory Concentration (MIC) assays by the US Clinical and Laboratory Standards Institute (formerly the NCCLS), an FDA-recognised body. […] The staphylococci and enterococci were cultured and maintained on Mueller-Hinton Medium (agar and broth) at pH 7.2; they were incubated aerobically at 37° C. for 24 hours. This is a standard international method for quantitatively assessing the antimicrobial activity of a compound in a liquid medium. The method used a 96-well microtitre plate, capable of holding about 200 μl of liquid per well. […] The culture media were as described above for the relevant test organisms. The wells were inoculated with a liquid suspension of freshly grown micro-organism and incubated under the conditions described above. After incubation, the microtitre plate was examined visually (with the aid of a light box) for cell pellets in and/or opaque wells, which would indicate microbial growth. The MIC value was recorded as the lowest concentration of test compound required to inhibit microbial growth, ie, the lowest concentration for which the liquid in the well remained clear. The assays were conducted in duplicate and included both negative (culture medium only) and positive (culture medium, diluting solvent and inoculum) controls.

Assay [4] deals with S. aureus ATCC 29213. Nature of the assay: Disc diffusion assay (DDA). The assay is classed as cell-based, Staphylococcus aureus. As to conditions: Table 1, zone diameter, 200 μg per disc (thymoquinone 50 μg). The source says: 1. Staphylococcus aureus—the principal staphylococcal test micro-organism used in these studies was Staphylococcus aureus ATCC 29213. This strain is the one recommended for QC/QA purposes in Minimum Inhibitory Concentration (MIC) assays by the US Clinical and Laboratory Standards Institute (formerly the NCCLS), an FDA-recognised body. S. aureus ATCC 29213 is susceptible to beta-lactam antibiotics such as methicillin and to many other antibiotics in clinical use worldwide today. The staphylococci and enterococci were cultured and maintained on Mueller-Hinton Medium (agar and broth) at pH 7.2; they were incubated aerobically at 37° C. for 24 hours. A sterile paper disc was impregnated with a sample of the test compound and a minimum of 30 minutes allowed for the solvents to evaporate as far as possible. The disc was then placed on an agar plate onto which the test micro-organism had been inoculated. The plate was then incubated under the conditions described above, following which it was examined visually for signs of bacterial growth. If the test compound had antimicrobial activity, a circular zone of no growth would be obtained around the disc. The diameter of this zone of “inhibition” was measured using a ProtoCOL™ automated zone sizer (Synbiosis, Cambridge, UK). In general, a greater diameter and/or area of the zone of inhibition indicates a greater antimicrobial activity in the relevant test compound, although other factors such as test compound mobility through the agar gel may also influence the result. […] The exceptions were the thymoquinone assays, in which only 50 μg of the benzoquinone was used.

Assay [5] has as its system S. aureus ATCC 29213. Nature of the assay: Synergy disc diffusion assay (SDDA). The assay is classed as cell-based, Staphylococcus aureus. As to conditions: for SDDA area increase / SDDA increase: quinone + BP; for SDDA area increase: over larger single-compound zone; for SDDA increase: over larger single-compound zone diameter; for SDDA with BP: quinone combined with BP on one disc, 200 μg of each (thymoquinone 50 μg). The text has this:
1. Staphylococcus aureus—the principal staphylococcal test micro-organism used in these studies was Staphylococcus aureus ATCC 29213. This strain is the one recommended for QC/QA purposes in Minimum Inhibitory Concentration (MIC) assays by the US Clinical and Laboratory Standards Institute (formerly the NCCLS), an FDA-recognised body. S. aureus ATCC 29213 is susceptible to beta-lactam antibiotics such as methicillin and to many other antibiotics in clinical use worldwide today. The staphylococci and enterococci were cultured and maintained on Mueller-Hinton Medium (agar and broth) at pH 7.2; they were incubated aerobically at 37° C. for 24 hours. This is a variation on the DDA method, in which two compounds are tested together for their combined antimicrobial activity. It provides a qualitative indication as to whether the compounds are likely to interact synergistically. Two test compounds A and B were placed on a single paper disc and the above described DDA procedure repeated. An increase in diameter of the zone of inhibition, compared to the greater of the zone diameters for the two compounds individually, was taken to indicate potential antimicrobial synergy. […] The larger the increase in zone size, the greater the likelihood of a synergistic interaction between the two test compounds. Each of the quinones was then subjected, in combination with BP, to the SDDA assay described above. In each case, increases in zone diameter (mm) and area (%) were measured with respect to those observed for the compound showing the larger zone diameters during the previous disc diffusion assays on the individual compounds. […] The exceptions were the thymoquinone assays, in which only 50 μg of the benzoquinone was used.

Assay [6] deals with S. aureus ATCC 29213. As to the kind of experiment: MBC assay. The format is cell-based, Staphylococcus aureus. As to conditions: S. aureus ATCC 29213; Table 1 (Example 1). As for the experimental part: 1. Staphylococcus aureus—the principal staphylococcal test micro-organism used in these studies was Staphylococcus aureus ATCC 29213. This strain is the one recommended for QC/QA purposes in Minimum Inhibitory Concentration (MIC) assays by the US Clinical and Laboratory Standards Institute (formerly the NCCLS), an FDA-recognised body. […] The staphylococci and enterococci were cultured and maintained on Mueller-Hinton Medium (agar and broth) at pH 7.2; they were incubated aerobically at 37° C. for 24 hours. This assay, normally carried out after an MIC assay, determines the minimum concentration of a compound that is lethal to the micro-organism being tested. […] These samples were then individually sub-cultured on non-selective agar medium, under the incubation conditions described above. Following incubation they were examined visually for bacterial growth.

Assay [7] relates to S. aureus ATCC 29213. Nature of the assay: Supplemented disc diffusion assay (DDA + salt, lipid or blood). The format is cell-based, Staphylococcus aureus. The settings on record: 200 μg per disc (thymoquinone 50 μg); for DDA + blood: agar supplemented with blood; for DDA + lipid: agar supplemented with lipid; for DDA + salt: agar supplemented with salt. As for the experimental part:
The staphylococci and enterococci were cultured and maintained on Mueller-Hinton Medium (agar and broth) at pH 7.2; they were incubated aerobically at 37° C. for 24 hours. A sterile paper disc was impregnated with a sample of the test compound and a minimum of 30 minutes allowed for the solvents to evaporate as far as possible. The disc was then placed on an agar plate onto which the test micro-organism had been inoculated. The plate was then incubated under the conditions described above, following which it was examined visually for signs of bacterial growth. If the test compound had antimicrobial activity, a circular zone of no growth would be obtained around the disc. The diameter of this zone of “inhibition” was measured using a ProtoCOL™ automated zone sizer (Synbiosis, Cambridge, UK). In general, a greater diameter and/or area of the zone of inhibition indicates a greater antimicrobial activity in the relevant test compound, although other factors such as test compound mobility through the agar gel may also influence the result. Either the DDA or the SDDA tests may be carried out using an agar gel supplemented with blood, lipid and/or salt to simulate some of the major components present in human skin and to assess whether these substances might reduce the antimicrobial activity observed for the test compounds. Performance under these conditions can provide a more reliable indication of activity on topical application. […] MIC, MBC and DDA assays, as described above, were carried out using the test compound benzoyl peroxide (BP) and a range of different benzoquinones and hydroquinones. Supplemented DDA assays, in the presence of salt, lipid and blood, were also conducted. […] The exceptions were the thymoquinone assays, in which only 50 μg of the benzoquinone was used.

Each structure is given as a SMILES string. In brackets after ≈: the same amount, converted by molar mass.

The compound `[Ca+2].[O-][O-]` [calcium peroxide] displayed a DDA with P. acnes NCTC 737 [1] of 0.0 mm. In addition, in the assay with P. acnes NCTC 737 [2], the SDDA area increase worked out at 544.48%, the SDDA increase stood at 23.08 mm and the “SDDA with TBHQ” value turned out to be 38.08 mm.
As to `Cc1cc(O)c(C(C)C)cc1O` [thymohydroquinone, 2-iso-propyl-5-methyl-p-hydroquinone], the MIC (as a rule, the lowest concentration that inhibits growth of the organism) with S. aureus ATCC 29213 [3] is 7.8 µg/mL (≈ 46.9 µM). In the assay with S. aureus ATCC 29213 [4], this compound yielded a DDA of 57.62 mm. In the assay with S. aureus ATCC 29213 [5], the SDDA area increase worked out at 70.26%, the SDDA increase is reported as 17.56 mm and the “SDDA with BP” value was 75.18 mm. For the same compound, the minimal bactericidal concentration (MBC) (in general, the smallest concentration meeting the test's criterion for killing) against S. aureus ATCC 29213 [6] was determined as 15.6 µg/mL (≈ 93.9 µM). For the same compound, in the assay on S. aureus ATCC 29213 [7], the “DDA + blood” value was found to be 10.27 mm, the “DDA + lipid” value is given as 41.71 mm and the “DDA + salt” value was 57.59 mm.
The compound `Cc1cc(O)ccc1O` [2-methyl-p-hydroquinone] yielded a minimal inhibitory concentration (MIC) with S. aureus ATCC 29213 [3] of 15.6 µg/mL (≈ 126 µM). In the assay on S. aureus ATCC 29213 [4], this compound had a DDA of 25.70 mm. In the assay on S. aureus ATCC 29213 [5], the SDDA area increase is recorded as 62.56%, the SDDA increase turned out to be 7.07 mm and the “SDDA with BP” value is given as 32.77 mm. For the same compound, in the assay with S. aureus ATCC 29213 [6], the minimum bactericidal concentration (MBC) worked out at 15.6 µg/mL (≈ 126 µM). Also, in the assay with S. aureus ATCC 29213 [7], the “DDA + blood” value was 18.74 mm, the “DDA + lipid” value came out at 24.68 mm and the “DDA + salt” value was 22.49 mm.
In turn, `[Mg+2].[O-][O-]` [magnesium peroxide] showed a DDA in the assay on P. acnes NCTC 737 [1] of 0.0 mm. In addition, in the assay with P. acnes NCTC 737 [2], the SDDA area increase was determined as 523.33%, the SDDA increase worked out at 22.45 mm and the “SDDA with TBHQ” value was 37.45 mm.
In turn, `[Na+].[Na+].[O-][O-]` [sodium peroxide] came in with a DDA in the assay on P. acnes NCTC 737 [1] of 0.0 mm. Moreover, in the assay with P. acnes NCTC 737 [2], the SDDA area increase came out at 128.21%, the SDDA increase stood at 7.66 mm and the “SDDA with TBHQ” value was determined as 22.66 mm.
In the assay on P. acnes NCTC 737 [1], `CC(C)(C)OO` [t-butyl hydroperoxide] gave a DDA of 0.0 mm. Also, in the assay with P. acnes NCTC 737 [2], the SDDA area increase worked out at 188.77%, the SDDA increase was 10.49 mm and the “SDDA with TBHQ” value is listed as 25.49 mm.

For the origin of these results see patent US20080262097A1, “Formulations” (priority 2005, published 2008).
